Reference: ChEMBL document CHEMBL1128755, “LTD4 Receptor binding activity of novel pyridine chromanols: qualitative correlation with pKa” (Bioorg Med Chem Lett, 1995)

How the values were obtained:
[1] = Association constant (pKa) was determined; type: physicochemical
[2] = biological target: T1, Cysteinyl leukotriene receptor 1 (Cavia porcellus, UniProt Q2NNR5); assay: Compound was tested for the inhibition of [3H]leukotriene D4 binding to LTD4 receptor in guinea pig lung membranes; type: cell membranes, Membrane
T1 sequence (Q2NNR5 whole entry): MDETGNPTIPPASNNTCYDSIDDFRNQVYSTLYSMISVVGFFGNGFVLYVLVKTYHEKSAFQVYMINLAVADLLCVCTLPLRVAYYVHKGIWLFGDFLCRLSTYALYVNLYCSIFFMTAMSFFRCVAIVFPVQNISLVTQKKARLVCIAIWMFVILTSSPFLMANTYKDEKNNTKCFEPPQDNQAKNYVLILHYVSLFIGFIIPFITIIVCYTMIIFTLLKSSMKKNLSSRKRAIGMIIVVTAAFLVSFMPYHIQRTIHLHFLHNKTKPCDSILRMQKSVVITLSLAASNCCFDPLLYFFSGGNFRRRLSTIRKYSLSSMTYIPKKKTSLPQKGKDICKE

[3] = Partition coefficient (logP); type: physicochemical; settings: octanol/water

pKa [1]	Ki [2] [nM]	logP [3]	SMILES
1.52	240	0.99	Cc1nc(COc2ccc3c(c2)[C@@H](O)[C@@H](Cc2cccnc2)CO3)ccc1[N+](=O)[O-]
5.96	> 100000	1.11	Cc1cccc(COc2ccc3c(c2)[C@@H](O)[C@@H](Cc2cccnc2)CO3)n1
0.72	23400	1.27	O[C@@H]1c2cc(OCc3cccc(Cl)n3)ccc2OC[C@@H]1Cc1cccnc1

The remaining lines, values behind:

SMILES	pKa [1]	Ki [2] [nM]	logP [3]
O[C@@H]1c2cc(OCc3ccc4ccccc4n3)ccc2OC[C@@H]1Cc1cccnc1	4.81	1640	2.04
O[C@@H]1c2cc(OCc3ccccn3)ccc2OC[C@@H]1Cc1cccnc1	5.25	> 100000	0.66
O[C@@H]1c2cc(OCc3cccc(F)n3)ccc2OC[C@@H]1Cc1cccnc1	-0.44	> 100000	0.84
Cc1nc(COc2ccc3c(c2)[C@@H](O)[C@@H](Cc2cccnc2)CO3)ccc1Br	3.55	1560	2.09
c1ccc2ncccc2c1 [QUINOLINE]	4.81		
